Assay results reported in article PMC3471877 (PLoS ONE, 2012).
Read-outs that look alike come from different tables or passages of the source. Square brackets hold non-standard residues; d marks the D form. Peptide text beside a SMILES is read from it.

How the values were obtained:
recombinant ETA receptor [1] = molecular target: T1, recombinant ETA receptor (Homo sapiens, UniProt P25101); experiment: cell-based
[2] = molecular target: T2, ET receptors in human primary PASMC (Homo sapiens, UniProt P25101); experiment: cell-based; conditions: ET-1 EC50–EC70
T2 sequence (P25101 21-427): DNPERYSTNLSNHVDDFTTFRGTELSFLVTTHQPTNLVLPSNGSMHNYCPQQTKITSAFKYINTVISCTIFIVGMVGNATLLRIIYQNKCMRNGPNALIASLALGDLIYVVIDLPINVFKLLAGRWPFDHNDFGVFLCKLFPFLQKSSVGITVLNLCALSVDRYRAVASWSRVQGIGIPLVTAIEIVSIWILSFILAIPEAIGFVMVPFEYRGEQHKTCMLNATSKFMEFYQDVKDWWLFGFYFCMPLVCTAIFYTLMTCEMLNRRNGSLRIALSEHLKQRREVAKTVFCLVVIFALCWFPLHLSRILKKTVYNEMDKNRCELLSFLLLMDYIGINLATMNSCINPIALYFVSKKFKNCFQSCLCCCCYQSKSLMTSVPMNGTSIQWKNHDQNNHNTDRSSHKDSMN

recombinant ETB receptor [3] = molecular target: T3, recombinant ETB receptor (Homo sapiens, UniProt P24530); conditions: read-out: Kb CHO-ETB; 120 min antagonist pre-incubation; ET-1 EC50–EC70; from IC50 via Cheng-Prusoff; geometric mean n = 3–8
T3 sequence (P24530 27-442): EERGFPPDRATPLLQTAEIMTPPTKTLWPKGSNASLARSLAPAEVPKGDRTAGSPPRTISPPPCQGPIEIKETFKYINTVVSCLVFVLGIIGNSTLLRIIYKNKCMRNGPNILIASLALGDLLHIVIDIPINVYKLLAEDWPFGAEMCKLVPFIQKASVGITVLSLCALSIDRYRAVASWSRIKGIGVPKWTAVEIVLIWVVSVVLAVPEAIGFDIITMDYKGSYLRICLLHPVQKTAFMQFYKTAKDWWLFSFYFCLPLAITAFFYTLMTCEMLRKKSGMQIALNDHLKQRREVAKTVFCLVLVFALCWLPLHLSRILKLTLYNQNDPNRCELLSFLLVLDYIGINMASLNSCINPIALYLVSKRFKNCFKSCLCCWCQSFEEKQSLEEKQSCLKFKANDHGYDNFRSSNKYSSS

[4] = molecular target: T2, ET receptors in human primary PASMC; conditions: for Kb: ET-1 EC50–EC70
recombinant ETA receptor [5] = molecular target: T1, recombinant ETA receptor; conditions: read-out: Kb CHO-ETA; 120 min antagonist pre-incubation; ET-1 EC50–EC70; from IC50 via Cheng-Prusoff; geometric mean n = 3–8
[6] = molecular target: T2, ET receptors in human primary PASMC; experiment: cell-based; conditions: 120 min pre-incubation
[7] = molecular target: T2, ET receptors in human primary PASMC; experiment: cell-based; conditions: 120 min pre-incubation; remark: listed apart in the source
[8] = molecular target: T2, ET receptors in human primary PASMC
[9] = molecular target: T2, ET receptors in human primary PASMC; conditions: for proportion of receptors dissociated from within the first 30 seconds: estimated assuming 1:1 correlation between signal and receptor occupancy; for ROt1/2: estimated from first calcium response phase at 1 µM ET-1; for proportion of ET-1-induced signal with surmountable mode of antagonism: first calcium response phase, peak, 1 µM ET-1
[10] = molecular target: T2, ET receptors in human primary PASMC; remark: listed apart in the source
P2Y12 = conditions: cited from earlier work
angiotensin II receptor = conditions: cited from earlier work
recombinant ETB receptor [11] = molecular target: T3, recombinant ETB receptor; experiment: cell-based
[12] = Kb 10 min, 10 min antagonist pre-incubation, geometric mean n = 6
[13] = Kb PASMC, Table 1, 120 min antagonist pre-incubation, from IC50 via Cheng-Prusoff, geometric mean n = 3–8
[14] = Kb IP1 accumulation, 20 min ET-1 stimulation, IC50 at […] ET-1 via Cheng-Prusoff, n = 4
[15] = Schild Kb IP1 accumulation, 90 min ET-1 stimulation, Gaddum/Schild regression, n = 3
[16] = Kb1 (first calcium response phase), peak fluorescence, IC50 at 8 nM ET-1 via Cheng-Prusoff
[17] = Kb2 (second sustained calcium response phase), AUC 3–23 min, IC50 at […] ET-1 via Cheng-Prusoff
[18] = Kb 120 min, 120 min antagonist pre-incubation (steady state), geometric mean n = 6

T1 sequence (P25101 21-427): as the sequence (P25101 21-427) above

Structure (SMILES): CC(C)C[C@@H]1NC(=O)[C@@H](C(C)C)NC(=O)[C@@H]2CCCN2C(=O)[C@@H](CC(=O)O)NC(=O)[C@@H](Cc2c[nH]c3ccccc23)NC1=O [BQ-123] (cyclo(L[dW][dD]P[dV]))
- Kb (recombinant ETA receptor [1]): 9.4 nM
- Kb [2, 12]: 0.61 nM
- Kb [2, 13]: 0.62 nM

Structure (SMILES): CCCC[C@@H](NC(=O)[C@@H](Cc1cn(C(=O)OC)c2ccccc12)NC(=O)[C@H](CC(C)(C)C)NC(=O)N1[C@H](C)CCC[C@@H]1C)C(=O)O [BQ-788]
- Kb (recombinant ETB receptor [3]): 0.09 nM
- Kb ratio ([4]; Kb 10 min versus 120 min pre-incubation (fold increase in potency)): 1.0
- Kb ([4]; read-out: Kb 10 min, 10 min antagonist pre-incubation, geometric mean n = 6): 121 nM
- Kb ([4]; read-out: Kb 120 min, 120 min antagonist pre-incubation (steady state), geometric mean n = 6): 117 nM
- Kb ([4]; read-out: Kb PASMC, Table 1, 120 min antagonist pre-incubation, from IC50 via Cheng-Prusoff, geometric mean n = 3–8): 117 nM
- Kb (recombinant ETA receptor [5]): 277 nM

Structure (SMILES): COC(c1ccccc1)(c1ccccc1)[C@H](Oc1nc(C)cc(C)n1)C(=O)O [ambrisentan]
- Kb [6, 14]: 1.1 nM
- Kb [6, 15]: 1.6 nM
- Ki [7, 16]: 0.27 nM
- Ki [7, 17]: 0.14 nM
- Kb [2, 12]: 0.11 nM
- Kb [2, 18]: 0.12 nM
- receptor occupancy half-life (ROt1/2) [8]: 0.667 min
- proportion of receptors dissociated from within the first 30 seconds [9]: ~30%
- ROt1/2 [9]: < 1 min
- proportion of ET-1-induced signal with surmountable mode of antagonism [9]: ~30%
- mode of antagonism, IP1 accumulation ([10]; 20 min ET-1 stimulation): surmountable
- mode of antagonism, IP1 accumulation ([10]; 90 min ET-1 stimulation): surmountable antagonism

Structure (SMILES): COc1ccccc1Oc1c(NS(=O)(=O)c2ccc(C(C)(C)C)cc2)nc(-c2ncccn2)nc1OCCO [bosentan]
- proportion of receptors dissociated from within the first 30 seconds [9]: ~50%
- ROt1/2 [9]: < 1 min
- proportion of ET-1-induced signal with surmountable mode of antagonism [9]: ~50%
- mode of antagonism, IP1 accumulation ([10]; 20 min ET-1 stimulation): surmountable
- mode of antagonism, IP1 accumulation ([10]; 90 min ET-1 stimulation): surmountable antagonism

Structure (SMILES): COC(=O)[C@H](c1ccccc1Cl)N1CCc2sccc2C1 [clopidogrel]
- binding mode (P2Y12): irreversible binding

Structure (SMILES): CCCCc1nc(Cl)c(CO)n1Cc1ccc(-c2ccccc2-c2nn[nH]n2)cc1 [losartan]
- shorter ROt1/2 compared to candesartan and olmesartan (angiotensin II receptor): 15–25 fold

Structure (SMILES): CCCNS(=O)(=O)Nc1ncnc(OCCOc2ncc(Br)cn2)c1-c1ccc(Br)cc1 [macitentan]
- Kb [6, 14]: 0.74 nM
- Kb [6, 15]: 1.4 nM
- Ki [7, 16]: 0.17 nM
- Ki [7, 17]: 0.093 nM
- Kb [2, 12]: 0.86 nM
- Kb [2, 18]: 0.14 nM
- increase in ROt1/2 compared to ambrisentan and bosentan [8]: ~15 fold
- receptor occupancy half-life (ROt1/2) [8]: 17 min
- loss in potency after washout ([8]; over 60 min after washout): 13 fold
- mode of antagonism, second sustained phase of calcium elevation ([9]; AUC 3–23 min after ET-1): insurmountable
- proportion of ET-1-induced signal with surmountable mode of antagonism [9]: no surmountable behavior
- mode of antagonism, IP1 accumulation ([10]; 20 min ET-1 stimulation): insurmountable
- mode of antagonism, IP1 accumulation ([10]; 20 min ET-1 stimulation, listed as Macitentan): insurmountable antagonism
- mode of antagonism, IP1 accumulation ([10]; 90 min ET-1 stimulation): surmountable antagonism

Structure (SMILES): Cc1cc2c(cc1CC(=O)c1sccc1S(=O)(=O)Nc1onc(C)c1Cl)OCO2 [sitaxentan]
- Kb (recombinant ETB receptor [11]): 4470 nM
- Kb (recombinant ETA receptor [1]): 20 nM
- Kb [2, 12]: 2.9 nM
- Kb [2, 18]: 4.2 nM
- Kb [2, 13]: 4.2 nM

Structure (SMILES): COc1ccccc1Oc1c(NS(=O)(=O)c2ccc(C(C)C)cn2)nc(-c2ccnc(-c3nnn[nH]3)c2)nc1OCCO [tezosentan]
- Kb (recombinant ETB receptor [11]): 0.5 nM
- Kb (recombinant ETA receptor [1]): 0.26 nM
- Kb [2, 12]: 0.042 nM
- Kb [2, 18]: 0.01 nM
- Kb [2, 13]: 0.01 nM

Structure (SMILES): COc1nc(C)cnc1NS(=O)(=O)c1cccnc1-c1ccc(-c2nnco2)cc1 [zibotentan]
- Kb (recombinant ETB receptor [11]): 4390 nM
